Results: the supplement of paper PMC8882468

Tests used:
Assay in all cases: CTG-3D luminescence at 96 h relative to day-0 seeding control (ratio to day 0); higher = more growth / less cytotoxicity; PDxO 3D drug screen, 96 h, CTG-3D normalised to day-0 seeding control.
[1] = system: HCI-019 (organoid from a triple-negative breast cancer xenograft)
[2] = system: HCI-027 (organoid from a triple-negative breast cancer xenograft)
[3] = system: HCI-016 (organoid from a triple-negative breast cancer xenograft)

Cc1cc(Nc2ncc(Cl)c(Nc3ccccc3S(=O)(=O)C(C)C)n2)c(OC(C)C)cc1C1CCNCC1 [ceritinib]
CTG-3D luminescence at 96 h
Settings	12.5 pM	0.00025 µM	0.005 µM	0.1 µM	1 µM	10 µM	100 µM	625 fM
[1], days in culture: 110	–	–	–	2.24	1.78	0.533	-0.00638	2.49
[1], days in culture: 131	–	–	–	3.8	2.36	0.0735	-0.00829	3.86
[1], days in culture: 152	–	–	1.79	1.51	1.37	0.01	-0.00373	2.52
[2], days in culture: 176	2.26	1.27	2.21	1.68	1.81	0.00647	-0.00642	2.34
[2], days in culture: 194	1.42	1.26	1.1	1.96	1.8	0.0105	-0.00633	1.39
[2], days in culture: 201	2.21	1.72	1.65	1.66	1.47	0.0089	-0.00463	1.31
[3], days in culture: 153	3.1	1.87	2.13	1.93	2.1	0.0113	-0.00664	2.35
[3], days in culture: 172	2.65	2.04	1.89	1.31	1.46	0.00857	-0.00483	2.1
[3], days in culture: 190	1.83	1.16	1.62	1.01	1.42	0.0979	-0.0035	1.25
[3], days in culture: 199	1.55	1.22	1.18	1.49	1.36	0.0047	-0.00558	1.96
